The text below walks through data of ChEMBL document CHEMBL2069221, “Hybrid molecules of carvacrol and benzoyl urea/thiourea with potential applications in agriculture and medicine” (Bioorg Med Chem Lett, 2012).

Molecules are shown by their SMILES. In brackets after ≈: the same amount, converted by molar mass. Activity calls are given as the source filed them. No cut-off for these calls is given here.

Data set [1] relates to Dysdercus koenigii. Briefly: Insecticidal activity against 5th instar nymph of Dysdercus koenigii assessed as mortality per nymph. The class given is functional.
Data set [2] concerns Dysdercus koenigii. Put plainly: Insecticidal activity against 5th instar nymph of Dysdercus koenigii assessed as smaller body size at 20 and 50 ug/nymph. Format: functional.
For data set [3], the system named is Dysdercus koenigii. Put plainly: Insecticidal activity against 5th instar nymph of Dysdercus koenigii assessed as crumpled wings at 20 and 50 ug/nymph. Format: functional.
The subject of data set [4] is Dysdercus koenigii. Put plainly: Insecticidal activity against 5th instar nymph of Dysdercus koenigii assessed as deformed legs at 20 and 50 ug/nymph. The class given is functional.
For a further data set, the system named is Pyricularia grisea. Briefly: Antifungal activity against Magnaporthe grisea after 48 hrs by microbroth dilution method. The class given is functional.
A further data set relates to Fusarium oxysporum. Put plainly: Antifungal activity against Fusarium oxysporum after 48 hrs by microbroth dilution method. Format: functional.
In another data set the test system is Drechslera. Briefly: Antifungal activity against Dreschlera oryzae after 48 hrs by microbroth dilution method. Format: functional.
A further data set has as its system Debaryomyces hansenii. Put plainly: Antifungal activity against Debaryomyces hansenii after 48 hrs by microbroth dilution method. The class given is functional.
Data set [5] can be described thus: Antifungal activity against Pichia membranifaciens after 48 hrs by microbroth dilution method. The class given is functional.
Data set [6] deals with Candida albicans. Briefly: Antifungal activity against Candida albicans NCIM 3557 after 48 hrs by microbroth dilution method. The class given is functional. On the technique in general: In broth dilution the organism is exposed to a series of concentrations in liquid medium.
The test system of data set [7] is Candida albicans. Put plainly: Antifungal activity against Candida albicans after 48 hrs by microbroth dilution method. The class given is functional.
For data set [8], the system named is Candida albicans. Briefly: Antifungal activity against Candida albicans NCIM 3471 after 48 hrs by microbroth dilution method. The class given is functional.
A further data set relates to Nakaseomyces glabratus. Put plainly: Antifungal activity against Candida glabrata NCIM 3237 after 48 hrs by microbroth dilution method. Format: functional.
Data set [9] deals with Cryptococcus neoformans. Put plainly: Antifungal activity against Cryptococcus neoformans after 48 hrs by microbroth dilution method. Format: functional.
The subject of data set [10] is Cryptococcus neoformans. Put plainly: Antifungal activity against Cryptococcus neoformans NCIM 3541 after 48 hrs by microbroth dilution method. The class given is functional.
Data set [11] has as its system Cryptococcus neoformans. Briefly: Antifungal activity against Cryptococcus neoformans NCIM 3542 after 48 hrs by microbroth dilution method. Format: functional.
The test system of data set [12] is Cryptococcus neoformans. Briefly: Antifungal activity against Cryptococcus neoformans NCIM 3378 after 48 hrs by microbroth dilution method. The class given is functional.
Data set [13] in a line: Toxicity in RBC assessed as induction of hemolysis. Format: cell-based, Erythrocyte. To be noted: red blood cells (RBC).
The nature of data set [14]: Toxicity in RBC assessed as induction of hemolysis at MIC. Format: cell-based, Erythrocyte. The settings on record: red blood cells (RBC); read-out: Activity.
Data set [15] is described as follows: Toxicity in RBC assessed as induction of hemolysis at 1000 ug/ml. Format: cell-based, Erythrocyte. The settings on record: red blood cells (RBC); read-out: Activity.

By MIC is commonly meant the lowest concentration that inhibits growth of the organism. In general, HC50 refers to the concentration giving 50% haemolysis. Consider `Cc1cc(NC(=O)NC(=O)c2c(F)cccc2F)c(C(C)C)cc1O`, for which the LD50 with Dysdercus koenigii [1] amounted to 9.5 µg. The result in the data set with Dysdercus koenigii [2], with Dysdercus koenigii [3] and in the data set on Dysdercus koenigii [4] was Active. For the same compound, the MIC (against Pyricularia grisea; against Fusarium oxysporum; against Drechslera; with Debaryomyces hansenii; in [5]) was greater than 512 µg/mL in each case. Moreover, the GI in the data set on Candida albicans [6] is greater than 512 µg/mL; with Candida albicans [7] it was 16 µg/mL; in the data set on Candida albicans [8], 32 µg/mL; in the data set with Nakaseomyces glabratus, 16 µg/mL; with Cryptococcus neoformans [9], greater than 512 µg/mL; in the data set with Cryptococcus neoformans [10], less than 4 µg/mL. For the same compound, the GI in the data set on Cryptococcus neoformans [11] and in the data set on Cryptococcus neoformans [12] was 16 µg/mL each time. Besides, the HC50 in data set [13] was greater than 1000 µg/mL. Further, the hemolysis in data set [14] is less than 2%.

As to `Cc1cc(NC(=S)NC(=O)c2c(F)cccc2F)c(C(C)C)cc1O`, the LD50 in the data set on Dysdercus koenigii [1] stood at 11.3 µg. Also, the MIC is greater than 512 µg/mL against Pyricularia grisea; greater than 512 µg/mL against Fusarium oxysporum; 256 µg/mL (≈ 702 µM) against Drechslera; 128 µg/mL (≈ 351 µM) in the data set with Debaryomyces hansenii; greater than 512 µg/mL in data set [5]. Besides, the GI in the data set with Candida albicans [6] was 256 µg/mL; in the data set on Candida albicans [7], 64 µg/mL; in the data set on Candida albicans [8], greater than 512 µg/mL; in the data set with Nakaseomyces glabratus, 64 µg/mL; with Cryptococcus neoformans [9], 512 µg/mL; in the data set on Cryptococcus neoformans [10] it was 32 µg/mL. For the same compound, the GI was 64 µg/mL in the data set on Cryptococcus neoformans [11] and 128 µg/mL in the data set with Cryptococcus neoformans [12]. Further, in data set [13], the HC50 is greater than 1000 µg/mL. Also, the hemolysis in [14] is less than 2%.

As for `Cc1cc(NC(=S)NC(=O)c2ccc(Cl)cc2)c(C(C)C)cc1O`, in the data set with Dysdercus koenigii [1], the LD50 is 20.8 µg. The MIC in the data set with Pyricularia grisea is 256 µg/mL (≈ 705 µM); with Fusarium oxysporum it was 128 µg/mL (≈ 353 µM); in the data set on Drechslera it was greater than 512 µg/mL; in the data set with Debaryomyces hansenii it was 256 µg/mL (≈ 705 µM); in data set [5], 512 µg/mL (≈ 1410 µM). For the same compound, the GI in the data set on Candida albicans [6] came to 64 µg/mL; in the data set on Candida albicans [7], 16 µg/mL; in the data set on Candida albicans [8] it was 32 µg/mL; with Nakaseomyces glabratus, 32 µg/mL; in the data set with Cryptococcus neoformans [9], 64 µg/mL; with Cryptococcus neoformans [10], 8 µg/mL. In addition, the GI in the data set on Cryptococcus neoformans [11] and in the data set on Cryptococcus neoformans [12] was 32 µg/mL each time. For the same compound, the HC50 in data set [13] is greater than 1000 µg/mL. The hemolysis in data set [14] was less than 2%.

For `Cc1cc(NC(=S)NC(=O)c2ccc(F)cc2)c(C(C)C)cc1O`, the LD50 in the data set on Dysdercus koenigii [1] came to 12.6 µg. Moreover, the minimum inhibitory concentration (MIC) came to 256 µg/mL (≈ 739 µM) with Pyricularia grisea; 128 µg/mL (≈ 369 µM) in the data set with Fusarium oxysporum; 256 µg/mL (≈ 739 µM) against Drechslera; 256 µg/mL (≈ 739 µM) with Debaryomyces hansenii; 512 µg/mL (≈ 1480 µM) in data set [5]. In addition, the GI is 64 µg/mL with Candida albicans [6]; 64 µg/mL in the data set with Candida albicans [7]; greater than 512 µg/mL in the data set with Candida albicans [8]; 64 µg/mL in the data set on Nakaseomyces glabratus; 16 µg/mL in the data set with Cryptococcus neoformans [9]; 32 µg/mL in the data set with Cryptococcus neoformans [10]. Besides, the GI with Cryptococcus neoformans [11] was found to be 64 µg/mL; in the data set on Cryptococcus neoformans [12], 128 µg/mL. For the same compound, in data set [13], the HC50 was greater than 1000 µg/mL. The hemolysis at 1000 ug/ml in [15] was 17%.

`Cc1cc(NC(=O)NC(=O)c2ccccc2)c(C(C)C)cc1O`: in the data set on Dysdercus koenigii [1], the LD50 was found to be 21.5 µg. Further, the MIC (in the data set with Pyricularia grisea; against Fusarium oxysporum; against Drechslera; in the data set on Debaryomyces hansenii; in [5]) was greater than 512 µg/mL each time. Besides, the GI in the data set on Candida albicans [6] is 512 µg/mL; with Candida albicans [7], greater than 512 µg/mL; with Candida albicans [8], greater than 512 µg/mL; with Nakaseomyces glabratus, greater than 512 µg/mL; in the data set with Cryptococcus neoformans [9], greater than 512 µg/mL; with Cryptococcus neoformans [10] it was greater than 512 µg/mL. Besides, the results for the GI in the data set with Cryptococcus neoformans [11] and with Cryptococcus neoformans [12] were 256 µg/mL and greater than 512 µg/mL, respectively. Also, the HC50 in data set [13] was greater than 1000 µg/mL. Moreover, in data set [14], the hemolysis was less than 2%.
